According to BindingDB's records for doi:10.1016/s0960-894x(99)00565-x (Dupont Pharmaceuticals, 1999):

Target: T1, Gag-Pol polyprotein [588-1027]/[588-1147] (Human immunodeficiency virus 1, UniProt P04585)
T1 construct: 588-1027; 588-1147
Assay: HIV-1 RT Assay
Conditions: pH 8.2; 37 °C

SMILES | IC50 [µM]
CC(=O)Nc1ccc2c(c1)C(C#CC1CC1)(C(F)(F)F)OC(=O)N2 (configuration not stated) | > 2
CC(=O)Nc1ccc2c(c1)C(C#CC(C)C)(C(F)(F)F)OC(=O)N2 (configuration not stated) | > 2
